Results on 13 compounds are retold here after US20210085640A1, “ACYLATED CATECHIN POLYPHENOLS AND METHODS OF THEIR USE FOR THE TREATMENT OF CANCER” (Flagship Pioneering Innovations V, Inc., priority 2018, published 2021).

Series [1] can be described thus: Stability in Simulated Intestinal Fluid (SIF). The series is classed as in vitro ADME. The conditions noted are these: for Assay 2 (SIF) (% @ Remaining 4 hours): SIF pH 6.7 with pancreatin, 1 μM, 37° C.; for selective delivery to the upper intestine: conclusion drawn from Table 1 (SGF and SIF stability). Here is the method: SIF Stability of acylated active agents in Simulated Intestinal Fluid (SIF). This assay was used to assess the stability of an acylated active agent in a small intestine.
Phosphate buffer was prepared by dissolving 0.42 g of sodium hydroxide pellets and 3.95 g of monobasic sodium phosphate monohydrate and 6.19 g of sodium chloride in ultrapure water (MilliQ®, Millipore Sigma, Darmstadt, Germany). The pH was adjusted to 6.7 using aq. HCl and aq. NaOH, as necessary, and the solution was diluted with ultrapure water to produce 1 L of the pH 6.7 buffer.
112 mg FaSSIF powder (Biorelevant™, London, UK) was dissolved in 50 mL of the pH 6.7 buffer. 2 to 3 mL of the resulting solution were then added to 500 mg pancreatin (Millipore Sigma, Darmstadt, Germany). The resulting mixture was agitated by finger tapping the vessel containing the mixture until milky suspension formed. At this time, the remainder of the 50 mL FaSSiF/pH 6.7 buffer solution was added. The resulting suspension was flipped upside down 10 times to produce SIF, which was used fresh.
Test compounds were dissolved in DMSO stock to 1 mM. An aliquot of the DMSO stock solution was removed and diluted in the SIF media in 15 mL falcon tubes to produce a mixture with a tested compound concentration of 1 μM. A 1 mL aliquot was immediately removed and diluted once with 1 volume of acetonitrile for T0 timepoint. The mixture was sealed and agitated at 37° C. in an incubator. Aliquots (1 mL) were removed at regular intervals and immediately quenched by the addition of 1 volume of acetonitrile. The resulting samples were analyzed by LC/MS to determine degradation rates.

Series [2] can be described thus: Stability in Simulated Gastric Fluid (SGF). The series is classed as in vitro ADME. To be noted: SGF pH 1.6 with pepsin, 1 μM, 37° C. As to the method:
Stability of acylated active agents in Simulated Gastric Fluid (SGF). This assay was used to assess the stability of an acylated active agent in a stomach.
Medium was prepared by dissolving 2 g of sodium chloride in 0.6 L in ultrapure water (MilliQ®, Millipore Sigma, Darmstadt, Germany). The pH was adjusted to 1.6 with 1N hydrochloric acid, and the volume was then adjusted to 1 L with purified water.
60 mg FaSSIF powder (Biorelevant™, London, UK) were dissolved in 500 mL buffer (above). Pepsin was added (0.1 mg/mL) (Millipore Sigma, Darmstadt, Germany), and the solution was stirred. The resulting SGF media were used fresh for each experiment.
Test compounds were dissolved in DMSO stock to 1 mM. An aliquot of the DMSO stock solution was removed and diluted in the SGF Media in 15 mL falcon tubes to generate a total compound concentration of 1 μM. A 1 mL aliquot was immediately removed and diluted once with 1 volume of acetonitrile for T0 timepoint. The mixture was sealed and mixed at 37° C. in an incubator. Aliquots (1 mL) were removed at regular intervals and immediately quenched by the addition of 1 volume of acetonitrile. The resulting samples were analyzed by LC/MS to determine degradation rates

As to `CC(=O)Oc1cc(OC(C)=O)c2c(=O)c(OC(C)=O)c(-c3ccc(OC(C)=O)c(OC(C)=O)c3)oc2c1` [Compound 4, [2-acetoxy-4-(3,5,7-triacetoxy-4-oxo-chromen-2-yl)phenyl] acetate], in series [1], the “Assay 2 (SIF) (% @ Remaining 4 hours)” value was “A (<25% of the tested compound remaining)” and the “selective delivery to the upper intestine” value is listed as “can be selectively delivered to the upper intestine”. The “Assay 1 (SGF) (% Remaining @ 1 hours)” value in series [2] is listed as “C (>75% of the tested compound remaining)”.
The corresponding values for `CCCC(=O)Oc1cc(OC(=O)CCC)c2c(=O)c(OC(=O)CCC)c(-c3ccc(OC(=O)CCC)c(OC(=O)CCC)c3)oc2c1` [Compound 5, [2-butanoyloxy-4-[3,5,7-tri(butanoyloxy)-4-oxo-chromen-2-yl]phenyl] butanoate] are “B (25-75% of the tested compound remaining)”, “can be selectively delivered to the upper intestine” and “C (>75% of the tested compound remaining)”.
The matching figures for `CC(=O)Oc1ccc(C2CC(=O)c3c(OC(C)=O)cc(OC(C)=O)cc3O2)cc1` (stereo not drawn) [Compound 9, [4-(5,7-diacetoxy-4-oxo-chroman-2-yl)phenyl] acetate]: “A (<25% of the tested compound remaining)”, “can be selectively delivered to the upper intestine” and “C (>75% of the tested compound remaining)”.
As to `CCCC(=O)Oc1ccc(C2CC(=O)c3c(OC(=O)CCC)cc(OC(=O)CCC)cc3O2)cc1` (stereo not drawn) [Compound 10, [4-[5,7-di(butanoyloxy)-4-oxo-chroman-2-yl]phenyl] butanoate], in series [1], the “Assay 2 (SIF) (% @ Remaining 4 hours)” value is reported as “A (<25% of the tested compound remaining)”. In series [2], the “Assay 1 (SGF) (% Remaining @ 1 hours)” value is reported as “B (25-75% of the tested compound remaining)”.
In the case of `CCC(=O)Oc1cc(O)c2c(=O)cc(-c3ccc(OC(=O)CC)c(OC(=O)CC)c3)oc2c1` [Compound 12, 4-(5-hydroxy-4-oxo-7-(propionyloxy)-4H-chromen-2-yl)-1,2-phenylene dipropionate], in series [1], the “Assay 2 (SIF) (% @ Remaining 4 hours)” value is “A (<25% of the tested compound remaining)” and the “selective delivery to the upper intestine” value is reported as “can be selectively delivered to the upper intestine”. Besides, the “Assay 1 (SGF) (% Remaining @ 1 hours)” value in series [2] is on record as “C (>75% of the tested compound remaining)”.
The matching figures for `CCC(=O)Oc1cc(OC(=O)CC)c2c(=O)c(OC(=O)CC)c(-c3cc(OC(=O)CC)c(OC(=O)CC)c(OC(=O)CC)c3)oc2c1` [Compound 13, [4-oxo-3,5-di(propanoyloxy)-2-[3,4,5-tri(propanoyloxy)phenyl]chromen-7-yl] propanoate]: “A (<25% of the tested compound remaining)”, “can be selectively delivered to the upper intestine” and “C (>75% of the tested compound remaining)”.
For `CCC(=O)Oc1ccc2c(c1)oc(=O)c1cc(OC(=O)CC)c(OC(=O)CC)cc12` [Compound 18, [6-oxo-8,9-di(propanoyloxy)benzo[c]chromen-3-yl] propanoate], in series [1], the “Assay 2 (SIF) (% @ Remaining 4 hours)” value was “A (<25% of the tested compound remaining)” and the “selective delivery to the upper intestine” value is listed as “can be selectively delivered to the upper intestine”. In addition, the “Assay 1 (SGF) (% Remaining @ 1 hours)” value in series [2] is on record as “C (>75% of the tested compound remaining)”.
The corresponding values for `CCCC(=O)OCC[C@@H](C)OC(=O)Oc1ccc(/C=C/c2cc(OC(=O)O[C@H](C)CCOC(=O)CCC)cc(OC(=O)O[C@H](C)CCOC(=O)CCC)c2)cc1` [Compound 25, [(3R)-3-[4-[(E)-2-[3,5-bis[[(1R)-3-butanoyloxy-1-methyl-propoxy]carbonyloxy]phenyl]vinyl]phenoxy]carbonyloxybutyl] butanoate] are “A (<25% of the tested compound remaining)”, “can be selectively delivered to the upper intestine” and “C (>75% of the tested compound remaining)”.
Regarding `CCCC(=O)O[C@H](C)CCOC(=O)Oc1ccc(/C=C/c2cc(OC(=O)OCC[C@@H](C)OC(=O)CCC)cc(OC(=O)OCC[C@@H](C)OC(=O)CCC)c2)cc1` [Compound 26, [(1R)-3-[4-[(E)-2-[3,5-bis[[(3R)-3-butanoyloxybutoxy]carbonyloxy]phenyl]vinyl]phenoxy]carbonyloxy-1-methyl-propyl] butanoate], the “Assay 2 (SIF) (% @ Remaining 4 hours)” value in series [1] is given as “B (25-75% of the tested compound remaining)”. Also, the “Assay 1 (SGF) (% Remaining @ 1 hours)” value in series [2] is given as “C (>75% of the tested compound remaining)”.
In the case of `CCC(=O)OCC[C@@H](C)OC(=O)Oc1ccc(/C=C/c2cc(OC(=O)O[C@H](C)CCOC(=O)CC)cc(OC(=O)O[C@H](C)CCOC(=O)CC)c2)cc1` [Compound 27, [(3R)-3-[4-[(E)-2-[3,5-bis[[(1R)-1-methyl-3-propanoyloxy-propoxy]carbonyloxy]phenyl]vinyl]phenoxy]carbonyloxybutyl] propanoate], in series [1], the “Assay 2 (SIF) (% @ Remaining 4 hours)” value was “A (<25% of the tested compound remaining)” and the “selective delivery to the upper intestine” value was “can be selectively delivered to the upper intestine”. Besides, the “Assay 1 (SGF) (% Remaining @ 1 hours)” value in series [2] was “C (>75% of the tested compound remaining)”.
For `CCC(=O)O[C@H](C)CCOC(=O)Oc1ccc(/C=C/c2cc(OC(=O)OCC[C@@H](C)OC(=O)CC)cc(OC(=O)OCC[C@@H](C)OC(=O)CC)c2)cc1` [Compound 28, (2R,2′R)-((((5-(E)-4-((((R)-3-(propionyloxy)butoxy)carbonyl)oxy)styryl)-1,3-phenylene)bis(oxy))bis(carbonyl))bis(oxy))bis(butane-4,2-diyl) dipropionate], the “Assay 2 (SIF) (% @ Remaining 4 hours)” value in series [1] is “A (<25% of the tested compound remaining)”. Moreover, the “Assay 1 (SGF) (% Remaining @ 1 hours)” value in series [2] is recorded as “B (25-75% of the tested compound remaining)”.
With `CC(=O)OCC[C@@H](C)OC(=O)Oc1ccc(/C=C/c2cc(OC(=O)O[C@H](C)CCOC(C)=O)cc(OC(=O)O[C@H](C)CCOC(C)=O)c2)cc1` [Compound 33, [(3R)-3-[4-[(E)-2-[3,5-bis[[(1R)-3-acetoxy-1-methyl-propoxy]carbonyloxy]phenyl]vinyl]phenoxy]carbonyloxybutyl] acetate], in series [1], the “Assay 2 (SIF) (% @ Remaining 4 hours)” value is listed as “A (<25% of the tested compound remaining)” and the “selective delivery to the upper intestine” value is given as “can be selectively delivered to the upper intestine”. In addition, in series [2], the “Assay 1 (SGF) (% Remaining @ 1 hours)” value is recorded as “C (>75% of the tested compound remaining)”.
In the case of `CC(=O)O[C@H](C)CCOC(=O)Oc1ccc(/C=C/c2cc(OC(=O)OCC[C@@H](C)OC(C)=O)cc(OC(=O)OCC[C@@H](C)OC(C)=O)c2)cc1` [Compound 34, [(1R)-3-[4-[(E)-2-[3,5-bis[[(3R)-3-acetoxybutoxy]carbonyloxy]phenyl]vinyl]phenoxy]carbonyloxy-1-methyl-propyl] acetate], in series [1], the “Assay 2 (SIF) (% @ Remaining 4 hours)” value is “A (<25% of the tested compound remaining)” and the “selective delivery to the upper intestine” value is “can be selectively delivered to the upper intestine”. Besides, in series [2], the “Assay 1 (SGF) (% Remaining @ 1 hours)” value was “C (>75% of the tested compound remaining)”.
